Assays:
Assay type in all cases: cell-based
human PMN [1] = assay: PMN cytosolic calcium ([Ca2+]i) flux
Text: (§1) PMN isolation (Hauser et al., J. Leukoc. Biol. 69:63-68, 2001; Fekete et al., Shock 16:15-20, 2001), cytosolic calcium studies (Hauer et al., J. Leukoc. Biol. 69:63-68, 2001; Hauser et al., J. Trauma 48:592-598, 2000; Tarlowe et al., J. Immunol. 171:2066-2073, 2003; Grynkiewicz et al., J. Biol. Chem. 260:2440-2450, 1985), IL-8 synthesis measurement by ELISA (Zallen et al., J. Trauma 46:42-48, 1999), cell signaling by Western blots (Zhang et al., Life Sci. 77:3068-3077, 2005), transwell chemotaxis (Tarlowe et al., J. Immunol. 171:2066-2073, 2003), and video-microscopy chemotaxis assays (Chen et al., Science 314:1792-1795, 2006) were performed as previously described.
Study data was assessed for statistical significance using Student's (unpaired) t-test or Analysis of Variance (ANOVA) where appropriate using a SigmaStat program with post-hoc tests chosen by the computer. [Ca^2+]i transients are reported as the mean change from basal [Ca^2+]i in nanomoles per liter (nM/L). Prolonged [Ca^2+]i fluxes are reported as the area under the curve (AUC) of measured change from basal [Ca^2+]i over the observation period (nM·sec). All data are reported as mean±s.e.m. with significance accepted at p<0.05.

PMN = settings: for PMN chemotaxis to the agent: MTD 100 μg/ml, mtDNA 10 μg/ml, CpG DNA 10 μg/ml, LPS 1 μg/ml
Text: as §1
Time-lapse video-microscopic chemotaxis was assayed as described previously (Chen et al., Science 314:1792-1795, 2006). Cells were exposed to a chemoattractant gradient field by slowly releasing MTD (˜100 μg/ml) or fMLF (10 nM) from a micropipette tip placed in proximity to the cells. The migration paths of individual cells were plotted using Adobe Illustrator. […] Experiments were repeated with multiple PMN and MTD isolates.

human PMN [2] = settings: mtDNA 100 μg/mL; preincubation with chloroquine 10 μg/mL
Experimental: (§2) PMN degranulation was assessed by measuring MMP-8 release. Human PMNs were suspended in HBSS with 1.8 mM Ca^2+ at 37° C. for 10 minutes while exposed to MTD, mtDNA, or fMLF at indicated concentrations. […] After stimulation, PMN were placed on ice and centrifuged. Supernatants were then assayed for MMP-8 by Western blot. Residual PMN were lysed to assay for MAPKs.
(§3) PMN activation was assessed by measuring MMP-8/9 degranulation and intracellular MAPK phosphorylation. Human PMN were exposed to mtDNA and nDNA at 1-100 μg/mL, 30 minutes at 37° C. After stimulation, PMN were placed on ice and centrifuged (10,000 g at 4° C. for 2 minutes) to obtain supernatants, which were then assayed for MMP-8 and MMP-9 by Western blot as described below. M-PER (Pierce, Rockford, Ill.) was then used to lyse the PMN cell pellets for determination of total and phosphorylated MAPKs by Western blot as described below. Total protein concentration of the lysates was determined by BCA assay.
(§4) Rat liver homogenates and supernatants from human PMN or human PMN lysates were boiled for 5 minutes in SDS sample buffer. Proteins were separated by SDS-PAGE using a […] polyacrylamide gel. Tris-glycine polyacrylamide gradient gels were purchased from Novex (San Diego, Calif.). Separated proteins were transferred to nitrocellulose membrane (0.45 μm pore size; Bio-Rad, Hercules, Calif.). […]

human PMN [3] = assay: PMN p38 and p44/42 MAPK phosphorylation (Western blot); settings: chloroquine 10 μg/mL
Experimental: as §2, §3, §4

Compound: Nc1ncnc2c1ncn2[C@@H]1O[C@H](COP(=O)(O)OP(=O)(O)OP(=O)(O)O)[C@@H](O)[C@H]1O [ATP]
- PMN [Ca2+]i mobilization (human PMN [1]; 1 μM): mobilizes

Compound: C/C=C/C[C@@H](C)[C@@H](O)[C@H]1C(=O)N[C@@H](CC)C(=O)N(C)CC(=O)N(C)[C@@H](CC(C)C)C(=O)N[C@@H](C(C)C)C(=O)N(C)[C@@H](CC(C)C)C(=O)N[C@@H](C)C(=O)N[C@H](C)C(=O)N(C)[C@@H](CC(C)C)C(=O)N(C)[C@@H](CC(C)C)C(=O)N(C)[C@H](C(C)C)C(=O)N1C [CsH, Cyclosporin H]
- PMN migrating to fMLF, effect of inhibitor (PMN; CsH 1 μM, fMLF 10 nM): significantly inhibits
- PMN chemotaxis to IL-8, effect of inhibitor (PMN; CsH, IL-8 10 nM): no effects
- FPR-induced calcium depletion (human PMN [1]; human PMN): specifically inhibits

Compound: CCN(CC)CCCC(C)Nc1ccnc2cc(Cl)ccc12 (stereo not drawn) [chloroquine]
- mtDNA-induced release of MMP-8 and -9, effect of inhibitor (human PMN [2]): suppressed
- phosphorylation of p38 MAPK in response to mtDNA, effect of inhibitor (human PMN [3]; mtDNA 100 μg/mL): not inhibited
- p38 MAPK responses to mtDNA, effect of inhibitor (human PMN [3]; mtDNA 1 and 5 μg/mL, 30 minutes, 37° C.): markedly inhibited

Compound: IL-8: chemokine used as chemoattractant
- PMN chemotaxis to the agent (PMN; fMLF 10 nM, IL-8 10 nM): shows chemotaxis

Compound: CSCC[C@H](NC=O)C(=O)N[C@@H](CC(C)C)C(=O)N[C@@H](Cc1ccccc1)C(=O)O [fMLF, N-formyl-methionyl-leucyl-phenylalanine]
- PMN chemotaxis to the agent (PMN; fMLF 10 nM, IL-8 10 nM): shows chemotaxis
